These results are taken from patent US20090325952A1, “PYRAZOLO[3,4-B]PYRIDINE COMPOUNDS, AND THEIR USE AS PDE4 INHIBITORS” (Glaxo Group Limited, priority 2006, published 2009).

Structures can show the parent of a compound that is named as a salt.

For the first experiment, the target named is T1, PDE4B (human recombinant) (Homo sapiens, UniProt Q07343).
T1 construct: made in house; host or cells: Saccharomyces cerevisiae strain GL62 (PDE-deficient yeast)
T1 sequence (Q07343 1-564 isoform Q07343-2): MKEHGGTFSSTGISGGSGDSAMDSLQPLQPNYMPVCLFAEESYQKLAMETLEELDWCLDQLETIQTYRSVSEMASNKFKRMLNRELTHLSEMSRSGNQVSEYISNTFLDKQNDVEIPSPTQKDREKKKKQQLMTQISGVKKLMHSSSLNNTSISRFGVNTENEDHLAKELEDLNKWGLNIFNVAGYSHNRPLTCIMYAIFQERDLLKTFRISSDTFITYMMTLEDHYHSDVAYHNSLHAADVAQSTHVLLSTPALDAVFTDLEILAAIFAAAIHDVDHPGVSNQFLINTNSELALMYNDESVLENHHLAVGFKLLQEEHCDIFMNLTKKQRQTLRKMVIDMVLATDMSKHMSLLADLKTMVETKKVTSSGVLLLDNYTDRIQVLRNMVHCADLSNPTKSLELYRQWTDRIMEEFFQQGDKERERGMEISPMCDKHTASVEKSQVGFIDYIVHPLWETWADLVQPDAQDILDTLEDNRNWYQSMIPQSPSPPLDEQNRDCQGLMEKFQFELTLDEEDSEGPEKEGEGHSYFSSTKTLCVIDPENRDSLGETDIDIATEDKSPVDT
As to the kind of experiment: Inhibition of PDE4B activity (FP and/or SPA assay). The format is biochemical. The settings on record: generally FP assay; one reading or average of n readings; read-out: PDE4B pIC50 (generally in FP assay) (±about 0.5) (converted). The text has this:
Human recombinant PDE4B, in particular the 2B splice variant thereof (HSPDE4B2B), is disclosed in WO 94/20079 and also M. M. McLaughlin et al., “A low Km, rolipram-sensitive, cAMP-specific phosphodiesterase from human brain: cloning and expression of cDNA, biochemical characterisation of recombinant protein, and tissue distribution of mRNA”, J. Biol. Chem., 1993, 268, 6470-6476. For example, in Example 1 of WO 94/20079, human recombinant PDE4B is described as being expressed in the PDE-deficient yeast Saccharomyces cerevisiae strain GL62, e.g. after induction by addition of 150 uM CuSO4, and 100,000×g supernatant fractions of yeast cell lysates are described for use in the harvesting of PDE4B enzyme.
The ability of compounds to inhibit catalytic activity at PDE4B or 4D (human recombinant), PDE3 (from bovine aorta), PDE5 (human recombinant) or PDE6 (from bovine retina) can optionally be determined by Scintillation Proximity Assay (SPA) in a 96-well format.
Test compounds (as a solution in DMSO, suitably about 2 microlitre (ul) volume of DMSO solution) are preincubated at ambient temperature (room temperature, e.g. 19-23° C.) in Wallac Isoplates (code 1450-514) with PDE enzyme in 50 mM Tris-HCl buffer pH 7.5, 8.3 mM MgCl2, 1.7 mM EGTA, 0.05% (w/v) bovine serum albumin for 10-30 minutes (usually 30 minutes). The enzyme concentration is adjusted so that no more than 20% hydrolysis of the substrate defined below occurs in control wells without compound, during the incubation. For the PDE3, PDE4B and PDE4D assays, [5′,8-^3H]Adenosine 3′,5′-cyclic phosphate (Amersham Pharmacia Biotech, code TRK.559; or Amersham Biosciences UK Ltd, Pollards Wood, Chalfont St Giles, Buckinghamshire HP8 4SP, UK) is added to give 0.05uCi per well and about 10 nM final concentration. For the PDE5 and PDE6 assays, [8^−3H]Guanosine 3′,5′-cyclic phosphate (Amersham Pharmacia Biotech, code TRK.392) is added to give 0.05uCi per well and about 36 nM final concentration. Plates containing assay mixture, suitably approx. 100 ul volume of assay mixture, are mixed on an orbital shaker for 5 minutes and incubated at ambient temperature for 1 hour. Phosphodiesterase SPA beads (Amersham Pharmacia Biotech, code RPNQ 0150) are added (about 1 mg per well) to terminate the assay. Plates are sealed and shaken and allowed to stand at ambient temperature for 35 minutes to 1 hour (suitably 35 minutes) to allow the beads to settle. Bound radioactive product is measured using a WALLAC TRILUX 1450 Microbeta scintillation counter. For inhibition curves, 10 concentrations (e.g. 1.5 nM-30 uM) of each compound are assayed. Curves are analysed using ActivityBase and XLfit (ID Business Solutions Limited, 2 Ocean Court, Surrey Research Park, Guildford, Surrey GU2 7QB, United Kingdom) Results are expressed as pIC50 values.
The ability of compounds to inhibit catalytic activity at PDE4B (human recombinant) or PDE4D (human recombinant) can optionally be determined by IMAP Fluorescence Polarisation (FP) assay (IMAP Explorer kit, available from Molecular Devices Corporation, Sunnydale, Calif., USA; Molecular Devices code: R8062) in 384-well format.
The IMAP FP assay is able to measure PDE activity in an homogenous, non-radioactive assay format. The FP assay uses the ability of immobilised trivalent metal cations, coated onto nanoparticles (tiny beads), to bind the phosphate group of Fl-AMP that is produced on the hydrolysis of fluorescein-labelled (Fl) cyclic adenosine mono-phosphate (Fl-cAMP) to the non-cyclic Fl-AMP form. […] Binding of Fl-AMP product to the beads (coated with the immobilised trivalent cations) slows the rotation of the bound Fl-AMP and leads to an increase in the fluorescence polarisation ratio of parallel to perpendicular light. Inhibition of the PDE reduces/inhibits this signal increase. […]
On to `CCc1nc2c(cnn2CC)c(NC2CCOCC2)c1CNC(=O)c1ccc(CCCCOCCCCN(C)CCO)cc1` [Example 19, formate salt of N-{[1,6-diethyl-4-(tetrahydro-2H-pyran-4-ylamino)-1H-pyrazolo[3,4-b]pyridin-5-yl]methyl}-4-[4-({4-[(2-hydroxyethyl)(methyl)amino]butyl}oxy)butyl]benzamide], for which the IC50 was around 0.0398 nM.

Consider `CCc1nc2c(cnn2CC)c(NC2CCOCC2)c1CNC(=O)c1ccc(NC(=O)CCCCCCCN(C)CCO)cc1` [Example 1A1, N-{[1,6-Diethyl-4-(tetrahydro-2H-pyran-4-ylamino)-1H-pyrazolo[3,4-b]pyridin-5-yl]methyl}-4-({8-[(2-hydroxyethyl)(methyl)amino]octanoyl}amino)benzamide dihydrochloride], for which the IC50 is around 0.0501 nM.

Take `CCc1nc2c(cnn2CC)c(NC2CCOCC2)c1CNC(=O)c1ccc(NC(=O)CCCCCCCN(C)CCO)cc1` [Example 1B, N-{[1,6-diethyl-4-(tetrahydro-2H-pyran-4-ylamino)-1H-pyrazolo[3,4-b]pyridin-5-yl]methyl}-4-({8-[(2-hydroxyethyl)(methyl)amino]octanoyl}amino)benzamide]: the IC50 is around 0.0631 nM.

With `CCn1ncc2c(NC3CCOCC3)c(CNC(=O)c3ccc(NC(=O)CCCCCCCN(C)CCO)cc3)cnc21` [Example 26, Formate salt of N-{[1-ethyl-4-(tetrahydro-2H-pyran-4-ylamino)-1H-pyrazolo[3,4-b]pyridin-5-yl]methyl}-4-({8-[(2-hydroxyethyl)(methyl)amino]octanoyl}amino)benzamide], the IC50 was around 0.251 nM.

On to `CCc1nc2c(cnn2CC)c(NC2CCN(C(N)=O)CC2)c1CNC(=O)c1ccc(CCCCOCCCCN2CCOCC2)cc1` [Example 23A, 4-({1,6-diethyl-5-[({[4-(4-{[4-(4-morpholinyl)butyl]oxy}butyl)phenyl]carbonyl}amino)methyl]-1H-pyrazolo[3,4-b]pyridin-4-yl}amino)-1-piperidinecarboxamide], for which the IC50 is around 0.1 nM.

Still in this experiment, the particulars now being: one reading or average of n readings.
For the compound `CCc1nc2c(cnn2CC)c(NC2CCN(C(N)=O)CC2)c1CNC(=O)c1ccc(NC(=O)CCCCCCCN(C)CCO)cc1.O=C(O)C(F)(F)F` [Example 9, 4-({1,6-diethyl-5-[({[4-({8-[(2-hydroxyethyl)(methyl)amino]octanoyl}amino)phenyl]carbonyl}amino)methyl]-1H-pyrazolo[3,4-b]pyridin-4-yl}amino)-1-piperidinecarboxamide trifluoroacetate (salt)], the “PDE4B pIC50 (generally in FP assay) (±about 0.5)” value is reported as “about 10.3 (n = 1)”.
